Data: the NIST ThermoML archive (doi:10.1016/j.fluid.2006.02.023)
Numbers after ± are expanded uncertainties.

Conditions: 303.15 K; 101.33 kPa; Liquid

In order of rising mass density:
1. CC(C)(C)O [2-methylpropan-2-ol]  775.1 ± 0.9 kg/m3
2. CC(C)O [propan-2-ol]  777.3 ± 0.9 kg/m3
3. CO [methanol]  782.4 ± 0.9 kg/m3
4. CCO [ethanol]  784.4 ± 0.9 kg/m3
5. CCCO [propan-1-ol]  795.8 ± 0.9 kg/m3
6. CCC(C)O (centres undefined) [butan-2-ol]  799.2 ± 0.9 kg/m3
7. CCCCO [butan-1-ol]  802.1 ± 0.9 kg/m3
8. CC(C)CCO [3-methylbutan-1-ol]  803.2 ± 0.9 kg/m3
9. C1COCO1 [1,3-dioxolane]  1051.8 ± 1.2 kg/m3

In order of falling speed of sound:
1. O [water]  1505.2 ± 3 m/s
2. C1COCO1 [1,3-dioxolane]  1288.5 ± 2.6 m/s
3. CC(C)CCO [3-methylbutan-1-ol]  1197 ± 2.5 m/s
4. CCCCO [butan-1-ol]  1196.6 ± 2.5 m/s
5. CCCO [propan-1-ol]  1182.6 ± 2.5 m/s
6. CCC(C)O (centres undefined) [butan-2-ol]  1168.9 ± 2.4 m/s
7. CCO [ethanol]  1144.3 ± 2.4 m/s
8. CC(C)O [propan-2-ol]  1126.6 ± 2.4 m/s
9. CO [methanol]  1088.5 ± 2.3 m/s
10. CC(C)(C)O [2-methylpropan-2-ol]  1078.8 ± 2.3 m/s

In order of falling viscosity:
1. CC(C)CCO [3-methylbutan-1-ol]  3.111 ± 0.14 mPa·s
2. CC(C)(C)O [2-methylpropan-2-ol]  3.099 ± 0.14 mPa·s
3. CCCCO [butan-1-ol]  2.54 ± 0.11 mPa·s
4. CCC(C)O (centres undefined) [butan-2-ol]  2.339 ± 0.11 mPa·s
5. CCCO [propan-1-ol]  1.663 ± 0.078 mPa·s
6. CC(C)O [propan-2-ol]  1.614 ± 0.076 mPa·s
7. CCO [ethanol]  0.9675 ± 0.048 mPa·s
8. O [water]  0.7975 ± 0.041 mPa·s
9. C1COCO1 [1,3-dioxolane]  0.5487 ± 0.03 mPa·s
10. CO [methanol]  0.5041 ± 0.028 mPa·s
